Reference: patent publication US20240254118A1, “PRMT5 INHIBITORS AND USES THEREOF” (Gilead Sciences, Inc., priority 2022, published 2024)

system: HCT116 MTAP-deleted cells; experiment: Cell viability assay (CellTiter-Glo, 7 days), HCT116 MTAP-deleted; details: Homo sapiens, HCT-116, 168 h

Row | Compound | CC50 [nM]
1 | CN(C(=O)C1CC1)N(Cc1ccc(C(F)F)cn1)C(=O)c1ccc2nc(N)c3cnn(C)c3c2c1 [Example 370, 4-amino-N′-(cyclopropanecarbonyl)-N-((5-(difluoromethyl)pyridin-2-yl)methyl)-N′,1-dimethyl-1H-pyrazolo[4,3-c]quinoline-8-carbohydrazide] | < 100
2 | CC(=O)N(C)N(Cc1ccc(C(F)(F)F)c(F)c1F)C(=O)c1ccc2nc(N)c3cnn(C)c3c2c1 [Example 371, N′-acetyl-4-amino-N-(2,3-difluoro-4-(trifluoromethyl)benzyl)-N′,1-dimethyl-1H-pyrazolo[4,3-c]quinoline-8-carbohydrazide] | < 100
3 | CC(=O)N(C)N(Cc1ccc(-c2cnn(C)c2)cc1F)C(=O)c1ccc2nc(N)c3cnn(C)c3c2c1 [Example 373, N′-acetyl-4-amino-N-[[2-fluoro-4-(1-methylpyrazol-4-yl)phenyl]methyl]-N′,1-dimethyl-pyrazolo[4,3-c]quinoline-8-carbohydrazide] | < 100
4 | CC(=O)N(C)N(Cc1ccc(-c2cnn(C(F)(F)F)c2)cc1Cl)C(=O)c1ccc2nc(N)c3cnn(C)c3c2c1 [Example 377, N′-acetyl-4-amino-N-[[2-chloro-4-[1-(trifluoromethyl)pyrazol-4-yl]phenyl]methyl]-N′,1-dimethyl-pyrazolo[4,3-c]quinoline-8-carbohydrazide] | < 100
5 | CC(=O)N(C)N(Cc1c(F)cc(-c2cnn(C(F)(F)F)c2)cc1F)C(=O)c1ccc2nc(N)c3cnn(C)c3c2c1 [Example 378, N′-acetyl-4-amino-N-[[2,6-difluoro-4-[1-(trifluoromethyl)pyrazol-4-yl]phenyl]methyl]-N′,1-dimethyl-pyrazolo[4,3-c]quinoline-8-carbohydrazide] | < 100
6 | CC(=O)N(C)N(Cc1c(F)cc(-c2cnn(C(F)F)c2)cc1F)C(=O)c1ccc2nc(N)c3cnn(C)c3c2c1 [Example 379, N′-acetyl-4-amino-N-[[4-[1-(difluoromethyl)pyrazol-4-yl]-2,6-difluoro-phenyl]methyl]-N′,1-dimethyl-pyrazolo[4,3-c]quinoline-8-carbohydrazide] | < 100
7 | CC(=O)N(C)N(Cc1c(F)cc(-c2cnn(C)c2)cc1F)C(=O)c1ccc2nc(N)c3cnn(C)c3c2c1 [Example 380, N′-acetyl-4-amino-N-[[2,6-difluoro-4-(1-methylpyrazol-4-yl)phenyl]methyl]-N′,1-dimethyl-pyrazolo[4,3-c]quinoline-8-carbohydrazide] | < 100
8 | CC(=O)N(C)N(Cc1c(F)cc(-c2cnn(C3CC3)c2)cc1F)C(=O)c1ccc2nc(N)c3cnn(C)c3c2c1 [Example 381, N′-acetyl-4-amino-N-[[4-(1-cyclopropylpyrazol-4-yl)-2,6-difluoro-phenyl]methyl]-N′,1-dimethyl-pyrazolo[4,3-c]quinoline-8-carbohydrazide] | < 100
9 | CN(C(=O)C1CC1)N(Cc1cc2cc(Cl)ccn2n1)C(=O)c1ccc2nc(N)c3cnn(C)c3c2c1 [Example 401] | < 100
10 | CN(C(=O)C1CC1)N(Cc1cc2cc(C(F)(F)F)ccn2n1)C(=O)c1ccc2nc(N)c3cnn(C)c3c2c1 [Example 404, 4-amino-N′-(cyclopropanecarbonyl)-N′,1-dimethyl-N-((5-(trifluoromethyl)pyrazolo[1,5-a]pyridin-2-yl)methyl)-1H-pyrazolo[4,3-c]quinoline-8-carbohydrazide] | < 100
11 | CC(=O)N(C)N(Cc1ccc(C#N)cc1C(F)(F)F)C(=O)c1ccc2nc(N)c3cnn(C)c3c2c1 [Example 407, N′-acetyl-4-amino-N-(4-cyano-2-(trifluoromethyl)benzyl)-N′,1-dimethyl-1H-pyrazolo[4,3-c]quinoline-8-carbohydrazide] | 100 to 1000
12 | CC(=O)N(C)N(Cc1ccc(C#N)cc1OC(F)F)C(=O)c1ccc2nc(N)c3cnn(C)c3c2c1 [Example 408, N′-acetyl-4-amino-N-(4-cyano-2-(difluoromethoxy)benzyl)-N′,1-dimethyl-1H-pyrazolo[4,3-c]quinoline-8-carbohydrazide] | < 100
13 | Cc1nc(C(F)(F)F)ccc1CN(C(=O)c1ccc2nc(N)c3cnn(C)c3c2c1)N(C)C(=O)C1CC1 [Example 409, 4-amino-N′-(cyclopropanecarbonyl)-N′,1-dimethyl-N-((2-methyl-6-(trifluoromethyl)pyridin-3-yl)methyl)-1H-pyrazolo[4,3-c]quinoline-8-carbohydrazide] | < 100
14 | CC(=O)N(C)N(Cc1ccc(C(F)(F)F)cc1C)C(=O)c1ccc2nc(N)c3cnn(C)c3c2c1 [Example 410, N′-acetyl-4-amino-N′,1-dimethyl-N-(2-methyl-4-(trifluoromethyl)benzyl)-1H-pyrazolo[4,3-c]quinoline-8-carbohydrazide] | < 100
15 | CC(=O)N(C)N(Cc1c(F)cc2c(ccn2C)c1F)C(=O)c1ccc2nc(N)c3cnn(C)c3c2c1 [Example 411, N′-acetyl-4-amino-N-((4,6-difluoro-1-methyl-1H-indol-5-yl)methyl)-N′,1-dimethyl-1H-pyrazolo[4,3-c]quinoline-8-carbohydrazide] | < 100
16 | CC(=O)N(C)N(Cc1ccc2c(c1)c1ccccc1n2C)C(=O)c1ccc2nc(N)c3cnn(C)c3c2c1 [Example 412, N′-acetyl-4-amino-N′,1-dimethyl-N-((9-methyl-9H-carbazol-3-yl)methyl)-1H-pyrazolo[4,3-c]quinoline-8-carbohydrazide] | 100 to 1000
17 | CC(=O)N(C)N(Cc1cc(F)c(F)c(F)c1)C(=O)c1ccc2nc(N)c3cnn(C)c3c2c1 [Example 414, N′-acetyl-4-amino-N′,1-dimethyl-N-(3,4,5-trifluorobenzyl)-1H-pyrazolo[4,3-c]quinoline-8-carbohydrazide] | 100 to 1000
18 | CC(=O)N(C)N(Cc1ccn(-c2ccc(C(F)(F)F)cc2)n1)C(=O)c1ccc2nc(N)c3cnn(C)c3c2c1 [Example 417, N′-acetyl-4-amino-N′,1-dimethyl-N-((1-(4-(trifluoromethyl)phenyl)-1H-pyrazol-3-yl)methyl)-1H-pyrazolo[4,3-c]quinoline-8-carbohydrazide] | < 100
19 | CN(C(=O)C1CC1)N(Cc1ccc(C(F)(F)F)cn1)C(=O)c1cc2c(cn1)nc(N)c1cnn(C)c12 [Example 422, 4-amino-N′-(cyclopropanecarbonyl)-N′,1-dimethyl-N-((5-(trifluoromethyl)pyridin-2-yl)methyl)-1H-pyrazolo[4,3-c][1,7]naphthyridine-8-carbohydrazide] | 100 to 1000
20 | CC(=O)N(C)N(Cc1nc2cc(F)c(F)cc2n1C)C(=O)c1ccc2nc(N)c3cnn(C)c3c2c1 [Example 424, N′-acetyl-4-amino-N-((5,6-difluoro-1-methyl-1H-benzo[d]imidazol-2-yl)methyl)-N′,1-dimethyl-1H-pyrazolo[4,3-c]quinoline-8-carbohydrazide] | < 100
21 | CC(=O)N(C)N(Cc1ccn(-c2ccc(F)cc2)n1)C(=O)c1cc2c(cc1F)nc(N)c1cnn(C)c12 [Example 425, N′-acetyl-4-amino-7-fluoro-N-((1-(4-fluorophenyl)-1H-pyrazol-3-yl)methyl)-N′,1-dimethyl-1H-pyrazolo[4,3-c]quinoline-8-carbohydrazide] | < 100
22 | CC(=O)N(C)N(Cc1nc2ccc(Cl)cc2n1C)C(=O)c1ccc2nc(N)c3cnn(C)c3c2c1 [Example 426, N′-acetyl-4-amino-N-((6-chloro-1-methyl-1H-benzo[d]imidazol-2-yl)methyl)-N′,1-dimethyl-1H-pyrazolo[4,3-c]quinoline-8-carbohydrazide] | < 100
23 | Cn1ncc2c(N)nc3cc(F)c(C(=O)N(Cc4ccc(C(F)(F)F)cn4)N4CCOC(C(F)(F)F)C4)cc3c21 (stereo not drawn) [Example 427, 4-amino-7-fluoro-1-methyl-N-(2-(trifluoromethyl)morpholino)-N-((5-(trifluoromethyl)pyridin-2-yl)methyl)-1H-pyrazolo[4,3-c]quinoline-8-carboxamide] | < 100
24 | Cn1ncc2c(N)nc3ccc(C(=O)N(Cc4ccc(C(F)(F)F)cn4)N4CCOC(C(F)(F)F)C4)cc3c21 (stereo not drawn) [Example 428, 4-amino-1-methyl-N-(2-(trifluoromethyl)morpholino)-N-((5-(trifluoromethyl)pyridin-2-yl)methyl)-1H-pyrazolo[4,3-c]quinoline-8-carboxamide] | 100 to 1000
25 | CC(=O)N(C)N(Cc1nc(-c2ccccc2)cs1)C(=O)c1ccc2nc(N)c3cnn(C)c3c2c1 [Example 429, N′-acetyl-4-amino-N′,1-dimethyl-N-((4-phenylthiazol-2-yl)methyl)-1H-pyrazolo[4,3-c]quinoline-8-carbohydrazide] | < 100
26 | CC(=O)N(C)N(Cc1cnn(-c2ccc(C(F)(F)F)cc2)c1)C(=O)c1ccc2nc(N)c3cnn(C)c3c2c1 [Example 430, N′-acetyl-4-amino-N′,1-dimethyl-N-((1-(4-(trifluoromethyl)phenyl)-1H-pyrazol-4-yl)methyl)-1H-pyrazolo[4,3-c]quinoline-8-carbohydrazide] | 100 to 1000
27 | CC(=O)N(C)N(Cc1nc2ccccc2n1C(F)F)C(=O)c1ccc2nc(N)c3cnn(C)c3c2c1 [Example 431, N′-acetyl-4-amino-N-((1-(difluoromethyl)-1H-benzo[d]imidazol-2-yl)methyl)-N′,1-dimethyl-1H-pyrazolo[4,3-c]quinoline-8-carbohydrazide] | 100 to 1000
28 | CC(=O)N(C)N(Cc1cnc(-c2ccccc2)n1C)C(=O)c1ccc2nc(N)c3cnn(C)c3c2c1 [Example 433, N′-acetyl-4-amino-N′,1-dimethyl-N-((1-methyl-2-phenyl-1H-imidazol-5-yl)methyl)-1H-pyrazolo[4,3-c]quinoline-8-carbohydrazide] | < 100
29 | Cn1ncc2c(N)nc3ccc(C(=O)N(Cc4ccn(-c5ccccc5F)n4)NC(=O)C4CC4)cc3c21 [Example 434, 4-amino-N′-(cyclopropanecarbonyl)-N-((1-(2-fluorophenyl)-1H-pyrazol-3-yl)methyl)-1-methyl-1H-pyrazolo[4,3-c]quinoline-8-carbohydrazide] | < 100
30 | CC(=O)N(C)N(Cc1ccn(-c2cccc(F)c2)n1)C(=O)c1ccc2nc(N)c3cnn(C)c3c2c1 [Example 435, N′-acetyl-4-amino-N-((1-(3-fluorophenyl)-1H-pyrazol-3-yl)methyl)-N′,1-dimethyl-1H-pyrazolo[4,3-c]quinoline-8-carbohydrazide] | < 100
